In one assay the test system is HSV-2 MS. Kind of assay: Plaque reduction assay, HSV-2 MS. The assay is classed as cell-based. Conditions: Table 1, plaque reduction, Vero cells; read-out: IC50 (uM), HSV-2 MS. The protocol: (§1) Antiviral activity of compounds against herpesviruses such as HSV-1, HSV-2, or HCMV can be measured using plaque reduction assays. 0.1 ml of media containing approximately 50 PFU of virus is added to each well of a 24-well cell culture dish containing a confluent monolayer of cells (Vero cells for HSV-1 and HSV-2, HFF cells for HCMV). Compounds are dissolved in 100% DMSO and diluted in 100% DMSO as 200× stocks of the desired final drug concentration. Typically 5-6 two-fold dilutions are prepared for each compound. Dilutions of compounds are then added to media containing 0.8% CMC resulting in a final 1× drug concentration. After the virus-infected cells have incubated for 1 h at 37° C., the virus innoculum is removed and 1 ml of media containing 0.8% CMC and the various concentrations of compound is added to each well of the dish. The dish is incubated at 37° C. for approximately 2-3 days (HSV-1 and HSV-2) or 6-9 days (HCMV) to allow sufficient growth of virus to form plaques in the cell monolayer. Plaques can be observed and counted microscopically or by staining the cells with 0.1% crystal violet in 20% ethanol. […] Antiviral activity of a compound is expressed as the concentration of compound predicted to reduce the number of plaques in a well by 50% (IC50). The IC50 values are calculated by plotting the per cent inhibition vs. concentration of compound using EXCEL software for linear regression.
(§2) A panel of viruses consisting of four strains of HSV-1 (KOS, F, DJL, Patton) and three strains of HSV-2 (MS, 35D, 186) are tested in a plaque reduction assay against four different 4-oxo-DHQ compounds (#1, 2, 4, 5 as shown in FIG. 1), and one 4-oxo-DHTP compound (#3 as shown in FIG. 1) and against Acyclovir. The six drugs inhibited replication of the seven virus strains with IC50 values ranging from 2-10 μM (Table 1). In order to select for 4-oxo-DHQ resistant mutants, HSV-1 strains KOS, F, and DJL along with HSV-2 strains 186 and MS are serially passaged in the presence of 20 uM compound 1. Following the seventh passage, 4-oxo-DHQ resistant virus from each strain are plaque purified three times and high-titer stocks are made.
(In general: Plaque reduction counts the foci of infection that form in a cell layer.)

The test system of a further assay is HSV-2 186. In words: Plaque reduction assay, HSV-2 186. The assay is classed as cell-based. Conditions: Table 1, plaque reduction, Vero cells. The protocol:
as §1, §2

For a further assay, the system named is HSV-1 KOS-M1 (V823A). In words: Plaque reduction assay, 4-oxo-DHQ resistant HSV-1 KOS-M1. The assay is classed as cell-based. Particulars: Table 2, mutant V823A; read-out: IC50 (uM), HSV-1 Kos-M1. How it is done:
as §1
Vero cells are plated out at a density of 3.5×10^5 cells per well in a six well tissue culture plate. Cells are infected with HSV-1 KOS at a multiplicity of infection (moi) of 0.1 pfu/cell and 1 h post infection the cells are overlayed with 3 ml media containing 20 uM of a 4-oxo-DHQ. Cultures are incubated for 20 h at 37° C., freeze/thawed to release cell-associated virus, and 0.1 ml of culture is used to infect a new monolayer of Vero cells (one passage). Serial passage is repeated seven times in the presence of 20 uM drug. Virus isolates are then plaque purified three times prior to preparation of stocks. 4-oxo-DHQ resistant HSV-1 and HSV-2 may also be selected by the marker transfer method described below using wild-type HSV DNA and the corresponding mutant HSV polymerase gene.
as §2

A further assay relates to HSV-1 F-M1 (V823A). Kind of assay: Plaque reduction assay, 4-oxo-DHQ resistant HSV-1 F-M1. Format: cell-based. Conditions: Table 2, mutant V823A. The protocol:
Antiviral activity of compounds against herpesviruses such as HSV-1, HSV-2, or HCMV can be measured using plaque reduction assays. 0.1 ml of media containing approximately 50 PFU of virus is added to each well of a 24-well cell culture dish containing a confluent monolayer of cells (Vero cells for HSV-1 and HSV-2, HFF cells for HCMV). Compounds are dissolved in 100% DMSO and diluted in 100% DMSO as 200× stocks of the desired final drug concentration. Typically 5-6 two-fold dilutions are prepared for each compound. Dilutions of compounds are then added to media containing 0.8% CMC resulting in a final 1× drug concentration. After the virus-infected cells have incubated for 1 h at 37° C., the virus innoculum is removed and 1 ml of media containing 0.8% CMC and the various concentrations of compound is added to each well of the dish. The dish is incubated at 37° C. for approximately 2-3 days (HSV-1 and HSV-2) or 6-9 days (HCMV) to allow sufficient growth of virus to form plaques in the cell monolayer. Plaques can be observed and counted microscopically or by staining the cells with 0.1% crystal violet in 20% ethanol. […] The IC50 values are calculated by plotting the per cent inhibition vs. concentration of compound using EXCEL software for linear regression. […]

Assay [1] deals with T1, HCMV V823A/V824L polymerase (Human cytomegalovirus, UniProt P08546, V823A/V824L).
T1 construct: made in house
T1 sequence (P08546 1-1242 V823A/V824L): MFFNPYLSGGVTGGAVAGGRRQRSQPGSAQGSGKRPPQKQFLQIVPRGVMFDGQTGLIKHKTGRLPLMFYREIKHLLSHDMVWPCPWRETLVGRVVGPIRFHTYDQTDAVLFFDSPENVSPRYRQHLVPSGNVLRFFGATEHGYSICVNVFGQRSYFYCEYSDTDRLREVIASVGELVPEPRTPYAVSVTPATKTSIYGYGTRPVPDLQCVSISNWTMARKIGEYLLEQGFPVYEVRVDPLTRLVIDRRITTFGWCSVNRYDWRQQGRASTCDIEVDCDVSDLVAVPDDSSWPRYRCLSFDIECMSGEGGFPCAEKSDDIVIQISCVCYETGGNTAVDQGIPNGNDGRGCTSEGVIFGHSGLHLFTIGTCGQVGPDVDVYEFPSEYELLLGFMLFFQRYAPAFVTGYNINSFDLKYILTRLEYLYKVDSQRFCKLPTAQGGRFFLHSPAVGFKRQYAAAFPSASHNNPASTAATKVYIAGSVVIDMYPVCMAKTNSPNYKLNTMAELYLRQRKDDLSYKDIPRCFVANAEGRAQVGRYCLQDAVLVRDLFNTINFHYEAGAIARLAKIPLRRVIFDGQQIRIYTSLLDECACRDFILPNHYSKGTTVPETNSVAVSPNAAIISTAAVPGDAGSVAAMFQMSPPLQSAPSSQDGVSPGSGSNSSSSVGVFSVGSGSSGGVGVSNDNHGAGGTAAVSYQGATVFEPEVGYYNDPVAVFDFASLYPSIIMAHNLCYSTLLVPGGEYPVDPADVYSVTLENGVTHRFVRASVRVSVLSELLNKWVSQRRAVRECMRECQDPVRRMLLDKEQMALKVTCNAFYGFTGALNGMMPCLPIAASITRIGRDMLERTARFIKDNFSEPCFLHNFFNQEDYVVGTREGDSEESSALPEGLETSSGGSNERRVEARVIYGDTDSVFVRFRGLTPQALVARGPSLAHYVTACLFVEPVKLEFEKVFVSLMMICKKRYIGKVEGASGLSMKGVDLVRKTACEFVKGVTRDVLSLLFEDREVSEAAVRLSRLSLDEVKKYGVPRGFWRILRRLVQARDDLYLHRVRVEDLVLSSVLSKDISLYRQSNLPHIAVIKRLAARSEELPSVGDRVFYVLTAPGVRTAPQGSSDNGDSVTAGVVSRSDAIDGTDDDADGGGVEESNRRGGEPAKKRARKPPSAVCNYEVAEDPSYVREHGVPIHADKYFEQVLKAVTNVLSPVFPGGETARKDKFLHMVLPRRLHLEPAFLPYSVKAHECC
Kind of assay: In vitro polymerase assay, mutant HCMV polymerase V823A/V824L. Format: biochemical. The protocol: In order to select for a 4-oxo-DHQ HCMV resistant mutant, virus (strain AD169) is serially passaged in the presence of 20 uM a 4-oxo-DHQ. […] In order to determine if both valines need to be changed in order to confer resistance to the 4-oxo-DHQ's, in vitro polymerase assays are done using mutant HCMV polymerases containing either V823A or V823A plus V824L (Table 3).

Another assay has as its system HCMV AD169. Kind of assay: Plaque reduction assay, HCMV AD169. The assay is classed as cell-based. Particulars: Table 4, plaque reduction, wild type; read-out: HCMV AD169 IC50. The protocol: as §1

Take `Cn1cc(C(=O)NCc2ccc(Cl)cc2)c(=O)c2cc(/C=C\CO)cc(F)c21` [Compound 1]: the concentration for half-maximal inhibition (IC50) was 2 µM with HSV-2 MS; 2 µM with HSV-2 186; greater than 20 µM in the assay on HSV-1 KOS-M1 (V823A); greater than 20 µM in the assay on HSV-1 F-M1 (V823A); 42.9 µM in assay [1] (Table 3); 700 nM in the assay with HCMV AD169. Besides, in assay [1] (relative to wild type), the “increase in resistance, HCMV V823A/V824L polymerase” value is “*Mutation of the amino acid from valine to alanine and amino acid 824 from valine to leucine results in an 9-fold increase in resistance, relative to wild type”.

As usually defined, the IC50 is the concentration needed to halve the response being measured.
